{"source": "patent US10300000B2", "about": "“Inhibition of melanogenesis by chemically modified curcumins” (The Research Foundation for The State University of New York, priority 2016, dated 2019)", "key": {"[1]": {"system": "intracellular ROS in B16F10 cells", "assay": "Intracellular ROS assay (H2DCFDA) in B16F10 cells", "assay_type": "cell-based, mouse", "conditions": "B16F10, 25 μM, 48 hours", "procedure": "Intracellular ROS generation was quantified using 2′,7′-dichlorodihydrofluorescein diacetate (H2DCFDA), a non-fluorescent dye which is trapped intracellularly by cleavage by intracellular esterases after reaction with reactive oxygen species (ROS); only the product, DCF, is fluorescent. For measuring intracellular ROS, B16F10 cells were seeded in 24 well plates at 4×10^4 cells/well. After 24 hours, media was aspirated and PC, THC and CMCs were added to the wells at different concentrations and further incubated for 48 hours. At the end of the incubations, the media was aspirated and cells were washed with PBS. DCFDA (Molecular Probes) was dissolved in DMSO to make 10 mM stock. DCFDA dye working stock (50 μM) was prepared by diluting the stock in DMEM (serum-free, phenol-red free and sodium pyruvate free) media and added to cells and further incubated for 45 minutes at 37° C. The cells were then washed with DPBS and fluorescence was read in bottom read mode, using a fluorescence microplate reader (Gemini EM Spectramax, Molecular Devices) set to excitation and emission wavelengths of 485 nm and 535 nm, respectively. Data was expressed as relative fluorescence % of treated vs. control."}, "[2]": {"system": "αMSH-stimulated B16F10 cells", "assay": "Melanin content in αMSH-stimulated B16F10 cells", "assay_type": "cell-based, mouse", "design": "unit of the concentration uncertain", "conditions": "48 hours", "procedure": "(§1) B16F10 cells were seeded at 1×10^5 cells/well in 12-well plates and incubated for 24 hours. The test compounds were then added in presence or absence of αMSH (100 nM), and further incubated for another 48 hours. For evaluation of melanin content, cells were trypsinized, washed in PBS and then 250 μL of 1N NaOH was added and heated to 70° C. to solubilize melanin. The aliquots were then transferred to a 96-well plate and absorbance was read at 475 nm using microplate reader. The absorbance of melanin was normalized by total protein contents and reported as % of control."}, "[3]": {"system": "B16F10 mouse melanoma cells", "assay_type": "cell-based", "conditions": "B16F10, 5 μM, 48 hours, MTS", "procedure": "In order to test the four CMCs (CMC2.14, CMC2.24, CMC2.5 and CMC2.23) alongside PC and THC, for their effects on melanin content, we first screened their nontoxic concentrations using MTS cytotoxicity (Promega CellTiter Aqueous One) assay. MTS is a tetrazolium salt which is reduced to purple colored formazan upon reaction with mitochondrial dehydrogenases. Briefly, B16F10 cells were seeded at 4×10^3 cells/well in 96-well plates for 24 hrs. […] Controls were treated with 0.16% DMSO. At the end of 48 hours, medium was aspirated and replaced by 100 μl of fresh media. MTS (20 μl) was added and incubated for 40 minutes and absorbance read at 490 nm using a Versamax® microplate reader. Cell viability was calculated from the absorbance values relative to control groups and expressed in %."}, "[4]": {"system": "αMSH-stimulated B16F10 cells", "assay": "Melanin content in αMSH-stimulated B16F10 cells", "assay_type": "cell-based, mouse", "procedure": "as §1"}}}
{"molecule": "COC(=O)C(C(=O)C=Cc1ccc(O)c(OC)c1)C(=O)C=Cc1ccc(O)c(OC)c1", "note": "(centres unmarked) [CMC2.5, 4-methoxycarbonyl curcumin]", "values": [{"measurement": "reduction of intracellular ROS", "setting": "[1]", "value": 23, "unit": "%"}, {"measurement": "reduction of melanin", "setting": "[2]; αMSH-stimulated B16F10, 20 (unit uncertain) as printed", "value": 36, "unit": "%"}, {"measurement": "reduction of melanin", "setting": "[2]; αMSH-stimulated B16F10, 25 (unit uncertain) as printed", "value": 42, "unit": "%"}]}
{"molecule": "COC(=O)C(C(=O)/C=C/c1ccc(O)cc1)C(=O)/C=C/c1ccc(O)cc1", "note": "[CMC2.14]", "values": [{"measurement": "increase of cell proliferation", "setting": "[3]", "value": 26.2, "unit": "%"}]}
{"molecule": "COc1cc(/C=C/C(=O)C(C(=O)/C=C/c2ccc(O)c(OC)c2)C(=O)Nc2ccccc2)ccc1O", "note": "[CMC2.23]", "values": [{"measurement": "lightening of cell pellets", "setting": "[4]", "value": "visible lightening"}]}
